According to BindingDB's records for PubMed 7562491 (Zeneca Pharmaceuticals, 1995):
“And” between values parts separate entries of the source, which are not always exact repeats. Equal entries are not always repeated.

Experiments:
Substance-K receptor [1] = target: T1, Substance-K receptor (Mesocricetus auratus, UniProt P51144)
T1 sequence (P51144 whole entry): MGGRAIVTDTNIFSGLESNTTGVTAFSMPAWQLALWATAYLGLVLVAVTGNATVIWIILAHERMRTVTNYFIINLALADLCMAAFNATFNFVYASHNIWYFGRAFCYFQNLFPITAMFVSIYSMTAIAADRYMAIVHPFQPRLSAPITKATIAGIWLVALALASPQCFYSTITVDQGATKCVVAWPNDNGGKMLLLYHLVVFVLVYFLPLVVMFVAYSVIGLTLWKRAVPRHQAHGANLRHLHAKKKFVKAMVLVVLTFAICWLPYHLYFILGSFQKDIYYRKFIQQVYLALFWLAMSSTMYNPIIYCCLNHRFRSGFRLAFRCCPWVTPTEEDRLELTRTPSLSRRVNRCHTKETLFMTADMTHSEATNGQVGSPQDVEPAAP

Substance-K receptor [2] = target: T2, Substance-K receptor (Homo sapiens, UniProt P21452)
T2 sequence (P21452 whole entry): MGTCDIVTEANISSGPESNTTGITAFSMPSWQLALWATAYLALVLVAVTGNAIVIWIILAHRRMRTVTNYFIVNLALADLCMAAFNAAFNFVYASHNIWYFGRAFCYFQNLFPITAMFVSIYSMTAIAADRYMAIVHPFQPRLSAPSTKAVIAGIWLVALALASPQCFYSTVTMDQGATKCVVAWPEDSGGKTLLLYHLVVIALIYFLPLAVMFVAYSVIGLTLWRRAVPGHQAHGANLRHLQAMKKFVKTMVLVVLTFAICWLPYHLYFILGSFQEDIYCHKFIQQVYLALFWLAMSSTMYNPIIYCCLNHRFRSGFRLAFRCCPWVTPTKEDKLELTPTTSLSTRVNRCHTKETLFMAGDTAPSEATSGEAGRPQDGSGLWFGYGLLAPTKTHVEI

Substance-P receptor = Substance-P receptor (Cavia porcellus, UniProt P30547)
Substance-P receptor, sequence (P30547 whole entry): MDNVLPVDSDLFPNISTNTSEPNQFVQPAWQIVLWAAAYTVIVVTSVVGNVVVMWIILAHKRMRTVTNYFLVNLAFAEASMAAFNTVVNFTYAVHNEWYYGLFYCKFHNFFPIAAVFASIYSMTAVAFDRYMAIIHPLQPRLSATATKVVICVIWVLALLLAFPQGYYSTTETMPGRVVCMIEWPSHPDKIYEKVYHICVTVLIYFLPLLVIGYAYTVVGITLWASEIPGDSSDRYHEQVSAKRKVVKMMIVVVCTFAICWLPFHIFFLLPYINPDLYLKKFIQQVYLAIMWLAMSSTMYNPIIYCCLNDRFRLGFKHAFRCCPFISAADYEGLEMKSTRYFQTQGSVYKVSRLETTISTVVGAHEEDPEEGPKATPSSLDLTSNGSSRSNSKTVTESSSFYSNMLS

Ki (Substance-K receptor [1])	Ki (Substance-K receptor [2])	Ki (Substance-P receptor)	Compound
18 nM and 17 nM	188 nM		CC(C)N1Cc2c(Nc3ccc(Cl)cc3)nc(N3CCN(C(=O)Cc4[nH]c(=O)[nH]c4O)CC3)nc2C1=O [COMPOUND I]
41 nM and 39 nM	187 nM		O=C1c2nc(N3CCOCC3)nc(Nc3ccc(Cl)cc3)c2CN1CCN1CCOCC1 [COMPOUND II]
2.2 nM and 2 nM	105 nM	9770 nM	CC(N=O)C(=O)N1CCN(c2nc(Nc3ccc(Cl)cc3)c3c(n2)C(=O)N(C(C)C)C3)CC1 (configuration not stated) [ZM253,270]
